# Data reported in US20230236193A1, “[…] FOR S[…]” (VANDERBILT UNIVERSITY, priority 2020, published 2023).
# T1: HsaSiglec+Unique (SLBRHsa, GST fusion), wild-type, Streptococcus gordonii strain Challis (Streptococcus gordonii, UniProt A8AWU7)
# T1 construct: the Siglec and Unique domains of Hsa; made in house
# T1 sequence (A8AWU7 220-449 limits assumed): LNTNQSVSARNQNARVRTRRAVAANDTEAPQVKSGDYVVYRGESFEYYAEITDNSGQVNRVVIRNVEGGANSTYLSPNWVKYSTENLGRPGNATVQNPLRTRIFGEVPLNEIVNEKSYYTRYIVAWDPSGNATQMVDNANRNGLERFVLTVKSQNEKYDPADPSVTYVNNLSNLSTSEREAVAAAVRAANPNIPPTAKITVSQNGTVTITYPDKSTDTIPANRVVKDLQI
# T2: UB10712Siglec+Unique (SLBRUB10712, GST fusion), S. gordonii strain UB10712, variant E285R (Streptococcus mitis, UniProt A0A6I8WFK9)
# T2 sequence (A0A6I8WFK9 1-210): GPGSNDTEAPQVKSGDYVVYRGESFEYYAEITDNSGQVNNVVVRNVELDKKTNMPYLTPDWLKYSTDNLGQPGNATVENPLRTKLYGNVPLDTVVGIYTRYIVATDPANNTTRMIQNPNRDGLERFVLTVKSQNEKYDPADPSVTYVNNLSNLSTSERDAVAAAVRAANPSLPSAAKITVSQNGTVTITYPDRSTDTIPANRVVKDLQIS
# B1: GspBSiglec+Unique: wild-type Siglec and Unique domains of GspB from S. gordonii strain M99 (protein)
# chain: DTERPVVNVPSEITVYRGESFEYFATVTDNSNAFDLAKTVVRWLYNNQPGRGTEWLQYSVTQVGNQLKVRIFGNVPIDTTIGDYTRYVVATDAAGNVNATQTEMGNAAVDKTSVNGQFKLIIRFRIKTPENTVFVNNPNQLTEVEKNLVREAVKKSNPDLRAQDVLNSNYVTGITVSNNGTTTITYRDGRKDIIDGSKFIDTR
# How the values were obtained:
# [1] = molecular target: T1, HsaSiglec+Unique (SLBRHsa, GST fusion), wild-type, Streptococcus gordonii strain Challis; assay: ELISA, biotinylated sialoglycan binding to immobilized GST-adhesin; settings: ligands chosen for costructures
# Procedure: (§1) 19. FIGS. 9A, 9B, 9C, and 9D show the impact of flexibility of sialoglycan binding by HsaBR. […] As a note, Hsa^S253 contains Ramachandran angles in the generously allowed region. FIGS. 9B, 9C, and 9D show dose response curves of wild-type and variant GST-HsaSiglec+Unique (500 nM) immobilized in 96-well plates and binding to 9B. the Neu5Ac-Gal disaccharide, 9C. sialyl-T antigen, and 9D. 3′sialyl-N-acetyllactosamine. Biotinylated sialoglycan ligands were added at the indicated concentrations. Binding is reported as the mean±standard deviation, with n=2.
# (§2) 20. FIGS. 10A, 10B, 10C, 10D, and 10E show chimeragenesis of Hsa-like adhesins. Dose-response curves of 10A wild-type GST-SK678Siglec+Unique, 10B wild-type GST-UB10712Siglec+Unique, and 10C wild-type GST-HsaSiglec+Unique to five selected ligands. D and E. Dose-response curves of the chimeras D. GST-SK678^Hsa-loops and E. UB10712^Hsa-loops which contain the CD, EF, and FG loops of Hsa.
# [2] = system: SK678Siglec+Unique (SLBRSK678, GST fusion), S. sanguinis strain SK678, chimera +Hsa EF loop; assay: ELISA, biotinylated sialoglycan binding to immobilized GST-adhesin chimera; parameters: species or system Streptococcus sanguinis strain SK678; settings: +SLBRHsa EF loop; one-point, 1-2 μg/ml biotinylated glycans
# Description: (§3) 21. FIGS. 11A, and 11B show chimeras of SRR adhesins. […] Values correspond to the mean±standard deviation, with n=2 (wt) or n=3 (variants). […] Values correspond to the mean±standard deviation, with n=2 (wt) or n=3 (variants).
# [3] = system: SK678Siglec+Unique (SLBRSK678, GST fusion), S. sanguinis strain SK678, chimera +Hsa CD loop; assay: as above; parameters: species or system Streptococcus sanguinis strain SK678; settings: +SLBRHsa CD loop; one-point, 1-2 μg/ml biotinylated glycans
# Description: as §3
# [4] = system: SK678Siglec+Unique (SLBRSK678, GST fusion), S. sanguinis strain SK678, chimera +Hsa FG loop; assay: as above; parameters: species or system Streptococcus sanguinis strain SK678; settings: +SLBRHsa FG loop; one-point, 1-2 μg/ml biotinylated glycans
# Description: as §3
# [5] = system: UB10712Siglec+Unique (SLBRUB10712, GST fusion), S. gordonii strain UB10712, chimera +Hsa EF loop; assay: as above; parameters: species or system Streptococcus gordonii strain UB10712; settings: +SLBRHsa EF loop; one-point, 1-2 μg/ml biotinylated glycans
# Description: as §3
# [6] = system: UB10712Siglec+Unique (SLBRUB10712, GST fusion), S. gordonii strain UB10712, chimera +Hsa FG loop; assay: as above; parameters: species or system Streptococcus gordonii strain UB10712; settings: +SLBRHsa FG loop; one-point, 1-2 μg/ml biotinylated glycans
# Description: as §3
# [7] = system: UB10712Siglec+Unique (SLBRUB10712, GST fusion), S. gordonii strain UB10712, chimera +Hsa CD loop; assay: as above; parameters: species or system Streptococcus gordonii strain UB10712; settings: +SLBRHsa CD loop; one-point, 1-2 μg/ml biotinylated glycans
# Description: as §3
# [8] = molecular target: SK678Siglec+Unique (SLBRSK678, GST fusion), wild-type, Streptococcus sanguinis strain SK678; assay: ELISA, biotinylated sialoglycan binding to immobilized GST-adhesin; settings: ELISA curves
# Description: as §2
# [9] = molecular target: SK678Siglec+Unique (SLBRSK678, GST fusion), S. sanguinis strain SK678, variant Q367D; assay: as above; settings: ELISA curves
# Procedure: Dose response curves of biotin-glycan binding to immobilized variant SLBRs (500 nM). […] Measurements were performed using 500 nM of immobilized GST-adhesin and the indicated concentrations of each ligand are shown as the mean±SD (n=2).
# (§4) DNA encoding wild-type and variant adhesins were cloned into pGEX-3X. […] DNA encoding adhesin chimeras were cloned into pGEX-3X.
# (§5) The pGEX vectors encode an N-terminal glutathione S-transferase (GST) affinity tag, which was used for purification. Individual GST-Siglec+Unique fusions were expressed and purified using glutathione-sepharose, and the binding of biotinylated glycans to immobilized GST-binding regions was performed.
# [10] = molecular target: SK678Siglec+Unique (SLBRSK678, GST fusion), S. sanguinis strain SK678, variant E298R; assay: as above; settings: for EC50: ELISA curves; for binding selectivity: ELISA
# Procedure: as §4, §5
# [11] = molecular target: T2, UB10712Siglec+Unique (SLBRUB10712, GST fusion), S. gordonii strain UB10712, variant E285R; assay: as above
# Procedure: as §4, §5
# human plasma proteins = assay: Far-western blotting of human plasma proteins with GST-binding regions; settings: 15 nM probe
# Procedure: Each Far Western was performed at least twice, with a representative blot shown.
# Far-western blotting of human plasma proteins using the indicated GST-binding regions (15 nM) as probes was performed as described.
# [12] = previously reported glycan binding/array; cited from earlier work
# [13] = ELISA: sialoglycan binding spectrum of wild-type, chimeric and variant adhesins (several ligands, in words); settings: 500 nM immobilized GST-adhesin, compared with wild-type/parent
# Procedure: as §1, §2, §3
Molecule,ligand affinity class [1],relative binding strength (A450) [2],relative binding strength (A450) [3],relative binding strength (A450) [4],relative binding strength (A450) [5],relative binding strength (A450) [6],relative binding strength (A450) [7],EC50 [8] [µg/mL],EC50 [9] [µg/mL],EC50 [10] [µg/mL],binding selectivity [10],binding selectivity [11],plasma glycoprotein bound (human plasma proteins),reported sialoglycan selectivity of wild-type adhesin [12],change of sialoglycan binding and selectivity [13]
"CC(=O)N[C@H]1[C@H]([C@H](O)[C@H](O)CO)O[C@@](O[C@H]2[C@@H](O)[C@@H](CO)O[C@@H](O[C@H]3[C@H](O)[C@@H](NC(C)=O)C(O)O[C@@H]3CO)[C@@H]2O)(C(=O)O)C[C@@H]1O (some centres unmarked) [3′sLn, Neu5Acα2-3Galβ1-4GlcNAc]",intermediate-affinity,++ (A450 = 0.7-1),− (A450 < 0.3),+ (A450 = 0.3-0.7),+++ (A450 > 1),++ (A450 = 0.7-1),++ (A450 = 0.7-1),0.85,>5,2.60,,,,,
CC(=O)N[C@H]1[C@H]([C@H](O)[C@H](O)CO)O[C@@](O[C@H]2[C@@H](O)[C@@H](CO)O[C@@H](O[C@H]3[C@H](O)[C@@H](NC(C)=O)C(O)O[C@@H]3COS(=O)(=O)O)[C@@H]2O)(C(=O)O)C[C@@H]1O (stereo partly drawn) [6S-3′sLn],,,,,,,,,,,became selective,became selective,,,
CC(=O)N[C@H]1[C@H]([C@H](O)[C@H](O)CO)O[C@@](O[C@H]2[C@@H](O)[C@@H](CO)O[C@@H](O[C@H]3[C@H](O[C@@H]4O[C@@H](C)[C@@H](O)[C@@H](O)[C@@H]4O)[C@@H](NC(C)=O)C(O)O[C@@H]3COS(=O)(=O)O)[C@@H]2O)(C(=O)O)C[C@@H]1O (stereo partly drawn) [6S-sLe^X],low-affinity,++ (A450 = 0.7-1),− (A450 < 0.3),− (A450 < 0.3),+++ (A450 > 1),+ (A450 = 0.3-0.7),+++ (A450 > 1),0.63,>5,0.06,became selective,became selective,,,
"CC(=O)N[C@H]1[C@H]([C@H](O)[C@H](O)CO)O[C@@](O[C@H]2[C@@H](O)[C@@H](CO)O[C@@H](O[C@H]3[C@H](O)[C@@H](CO)OC(O)[C@@H]3NC(C)=O)[C@@H]2O)(C(=O)O)C[C@@H]1O (some centres unmarked) [sLe^C, Neu5Acα2-3Galβ1-3GlcNAc]",high-affinity,− (A450 < 0.3),− (A450 < 0.3),− (A450 < 0.3),+ (A450 = 0.3-0.7),+ (A450 = 0.3-0.7),− (A450 < 0.3),>5,>5,>5,,,,,
"CC(=O)N[C@H]1[C@H]([C@H](O)[C@H](O)CO)O[C@@](O[C@H]2[C@@H](O)[C@@H](CO)O[C@@H](O[C@H]3[C@@H](O)[C@@H](CO)OC(O)[C@@H]3NC(C)=O)[C@@H]2O)(C(=O)O)C[C@@H]1O (some centres unmarked) [sTa, Neu5Acα2-3Galβ1-3GalNAc]",high-affinity,− (A450 < 0.3),− (A450 < 0.3),− (A450 < 0.3),+ (A450 = 0.3-0.7),++ (A450 = 0.7-1),+ (A450 = 0.3-0.7),>5,>5,>5,,,,,
B1,,,,,,,,,,,,,sTa-modified proteoglycan 4,narrow selectivity for the sTa trisaccharide,binding preference for sTa
